# Assay results reported in patent US7799821B2, “Therapeutic compounds” (Allergan, Inc., priority 2004, dated 2010).
# pEC50, pIC50, pKi: −log10 of the molar value. Read-outs that look alike come from different tables or passages of the source.
# Key:
# [1] = biological target: T1, HEK-EBNA cells expressing a PG EP2 receptor subtype (Homo sapiens, UniProt P43116); assay: cAMP assay, EP2; assay type: cell-based; conditions: unit inferred; read-out: EP2 data cAMP EC50
# T1 construct: expressed in transfected cells; host or cells: HEK-EBNA
# Procedure: A 384-well drug plate was prepared to contain 6 test compounds, PGE2 and cAMP in 16 serial dilutions in triplicate, using a Biomek station. HEK-EBNA cells expressing a target PG receptor subtype (EP2 or EP4) were suspended in a stimulation buffer (HBSS, 0.1% BSA, 0.5 mM IBMX and 5 mM HEPES, pH 7.4) in a density of 10^4 cells/5 μl. The reaction was initiated by mixing 5 μL drug dilutions with 5 μl of HEK-EBNA cells in a well, carried out for 30 min at room temperature, and followed by the addition of 5 μl anti-cAMP acceptor beads in the control buffer with Tween-20 (25 mM NaCl, 0.03% Tween-20, 5 mM HEPES, pH7.4). After 30 min in the dark at room temperature, the mixtures were incubated with 15 μl biotinylated-cAMP/strepavidin donor beads in Lysis/Detection buffer (0.1% BSA, 0.3% Tween-20 and 5 mM HEPES, pH7.4) for 45 min at the room temperature. Fluorescence changes were read using a Fusion-alpha HT microplate reader.
# EP4 receptors = biological target: T2, EP4 receptors (Homo sapiens, UniProt P35408); assay: Radioligand binding ([3H]PGE2), EP4; conditions: unit inferred; read-out: EP4 data KI
# T2 construct: expressed in transfected cells; host or cells: HEK-293
# Procedure: (§1) HEK-293 cells stably expressing the human or feline FP receptor, or EP1, EP2, or EP4 receptors were washed with TME buffer, scraped from the bottom of the flasks, and homogenized for 30 sec using a Brinkman PT 10/35 polytron. TME buffer was added to achieve a final 40 ml volume in the centrifuge tubes (the composition of TME is 100 mM TRIS base, 20 mM MgCl2, […]; 10N HCl is added to achieve a pH of 7.4).
# (§2) The cell homogenate was centrifuged at 19000 r.p.m. for 20 min at 4° C. using a Beckman Ti-60 rotor. The resultant pellet was resuspended in TME buffer to give a final 1 mg/ml protein concentration, as determined by Biorad assay. Radioligand binding competition assays vs. [^3H-]17 —phenyl PGF2α (5 nM) were performed in a 100 μl volume for 60 min. Binding reactions were started by adding plasma membrane fraction. The reaction was terminated by the addition of 4 ml ice-cold TRIS-HCl buffer and rapid filtration through glass fiber GF/B filters using a Brandel cell harvester. The filters were washed 3 times with ice-cold buffer and oven dried for one hour.
# (§3) [^3H-] PGE2 (specific activity 180 Ci mmol) was used as the radioligand for EP receptors. [^3H] 17-phenyl PGF2α was employed for FP receptor binding studies. Binding studies employing EP1, EP2, EP4 and FP receptors were performed in duplicate in at least three separate experiments. A 200 μl assay volume was used. Incubations were for 60 min at 25° C. and were terminated by the addition of 4 ml of ice-cold 50 mM TRIS-HCl, followed by rapid filtration through Whatman GF/B filters and three additional 4 ml washes in a cell harvester (Brandel). Competition studies were performed using a final concentration of 5 nM [^3H]—PGE2, or 5 nM [^3H] 17-phenyl PGF2α and non-specific binding determined with 10^−5M of unlabeled PGE2, or 17-phenyl PGF2α, according to receptor subtype studied.
# hEP2/Gqs5 = biological target: T3, hEP2/Gqs5 (Homo sapiens, UniProt P43116); assay: FLIPR calcium signal, hEP2; assay type: cell-based; conditions: for EC50: unit inferred, other columns of the table in nM, read-out: EP2 data flipr EC50; for pEC50: FLIPR Ca2+ signal, HEK-293(EBNA), read-out: FUNCTIONAL EC50 HEP2
# T3 construct: expressed in transfected cells; host or cells: HEK-293(EBNA)
# Procedure: (§4) HEK-293(EBNA) cells, stably expressing one type or subtype of recombinant human prostaglandin receptors (prostaglandin receptors expressed: hDP/Gqs5; hEP1; hEP2/Gqs5; hEP3A/Gqi5; hEP4/Gqs5; hFP; hIP; hTP), were cultured in 100 mm culture dishes in high-glucose DMEM medium containing 10% fetal bovine serum, 2 mM 1-glutamine, 250 μg/ml geneticin (G418) and 200 μg/ml hygromycin B as selection markers, and 100 units/ml penicillin G, 100 μg/ml streptomycin and 0.25 μg/ml amphotericin B. • (b) Calcium Signal Studies on the FLIPR™
# (§5) Cells were seeded at a density of 5×10^4 cells per well in Biocoat® Poly-D-lysine-coated black-wall, clear-bottom 96-well plates (Becton-Dickinson) and allowed to attach overnight in an incubator at 37° C. Cells were then washed two times with HBSS-HEPES buffer (Hanks Balanced Salt Solution without bicarbonate and phenol red, 20 mM HEPES, pH 7.4) using a Denley Cellwash plate washer (Labsystems). After 45 minutes of dye-loading in the dark, using the calcium-sensitive dye Fluo-4 AM at a final concentration of 2 μM, plates were washed four times with HBSS-HEPES buffer to remove excess dye leaving 100 μl in each well. Plates were re-equilibrated to 37° C. for a few minutes.
# (§6) Cells were excited with an Argon laser at 488 nm, and emission was measured through a 510-570 nm bandwidth emission filter (FLIPR™, Molecular Devices, Sunnyvale, Calif.). Drug solution was added in a 50 μl volume to each well to give the desired final concentration. The peak increase in fluorescence intensity was recorded for each well. On each plate, four wells each served as negative (HBSS-HEPES buffer) and positive controls (standard agonists: BW245C (hDP); PGE2 (hEP1; hEP2/Gqs5; hEP3A/Gqi5; hEP4/Gqs5); PGF2α (hFP); carbacyclin (hIP); U-46619 (hTP), depending on receptor). The peak fluorescence change in each drug-containing well was then expressed relative to the controls.
# (§7) Compounds were tested in a high-throughput (HTS) or concentration-response (CoRe) format. In the HTS format, forty-four compounds per plate were examined in duplicates at a concentration of 10^−5 M. To generate concentration-response curves, four compounds per plate were tested in duplicates in a concentration range between 10^−5 and 10^−11 M. The duplicate values were averaged. In either, HTS or CoRe format each compound was tested on at least 3 separate plates using cells from different passages to give an n≧3.
# human EP2 receptors = biological target: T4, human EP2 receptors (Homo sapiens, UniProt P43116); assay: Competition radioligand binding ([3H]PGE2), EP2; conditions: for pKi: unit inferred, read-out: EP2 data Ki
# T4 construct: expressed in transfected cells; host or cells: HEK 293
# Procedure: Competition binding experiments were performed in a medium containing Hank's balanced salt solution, […], membranes (˜60 μg protein) or 2×10^5 cells from HEK 293 cells stably expressing human EP2 receptors, [^3H]PGE2 (10 nM) and various concentrations of test compounds in a total volume of 300 μl. Reaction mixtures were incubated at 23° C. for 60 min, and were filtered over Whatman GF/B filters under vacuum. Filters were washed three times with 5 ml ice-cold buffer containing 50 mM Tris/HCl (pH 7.3). Non-specific binding was estimated in the presence of excess unlabeled PGE2 (10 μM). Binding data fitted to the binding model for a single class of binding sites, using nonlinear regression analysis. IC50 values thus obtained were converted to Ki using the equation of Ki=(IC50/(1+[L]/KD) where [L] represents PGE2 concentration (10 nM) and KD the dissociation constant for [^3H]PGE2 at human EP2 receptors (40 nM).
# as §1, §2, §3
# hEP3A/Gqi5 = biological target: T5, hEP3A/Gqi5 (Homo sapiens, UniProt P43115); assay: FLIPR calcium signal, hEP3A; assay type: cell-based
# T5 construct: expressed in transfected cells; host or cells: HEK-293(EBNA)
# T5 sequence (P43115 1-390): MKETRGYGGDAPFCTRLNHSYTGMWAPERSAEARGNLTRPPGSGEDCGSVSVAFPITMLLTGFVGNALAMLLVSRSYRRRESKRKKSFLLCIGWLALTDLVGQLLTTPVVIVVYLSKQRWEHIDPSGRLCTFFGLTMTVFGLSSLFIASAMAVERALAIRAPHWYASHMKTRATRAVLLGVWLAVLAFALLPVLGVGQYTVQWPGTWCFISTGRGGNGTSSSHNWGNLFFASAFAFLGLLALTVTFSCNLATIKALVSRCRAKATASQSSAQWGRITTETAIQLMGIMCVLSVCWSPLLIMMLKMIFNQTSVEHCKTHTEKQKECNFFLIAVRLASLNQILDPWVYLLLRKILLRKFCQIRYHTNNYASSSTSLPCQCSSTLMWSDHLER
# Procedure: as §4, §5, §6, §7
# hEP4/Gqs5 = biological target: T6, hEP4/Gqs5 (Homo sapiens, UniProt P35408); assay: FLIPR calcium signal, hEP4; assay type: cell-based
# T6 construct: expressed in transfected cells; host or cells: HEK-293(EBNA)
# Procedure: as §4, §5, §6, §7
# [2] = FLIPR Ca2+ signal, HEK-293(EBNA), read-out: FUNCTIONAL EC50 HEP3A
# [3] = FLIPR Ca2+ signal, HEK-293(EBNA), read-out: FUNCTIONAL EC50 HEP4
# [4] = unit inferred, read-out: EP4 data flipr EC50
# [5] = read-out: Other Receptors EC50 hEP3A
# T2 sequence (P35408 whole entry): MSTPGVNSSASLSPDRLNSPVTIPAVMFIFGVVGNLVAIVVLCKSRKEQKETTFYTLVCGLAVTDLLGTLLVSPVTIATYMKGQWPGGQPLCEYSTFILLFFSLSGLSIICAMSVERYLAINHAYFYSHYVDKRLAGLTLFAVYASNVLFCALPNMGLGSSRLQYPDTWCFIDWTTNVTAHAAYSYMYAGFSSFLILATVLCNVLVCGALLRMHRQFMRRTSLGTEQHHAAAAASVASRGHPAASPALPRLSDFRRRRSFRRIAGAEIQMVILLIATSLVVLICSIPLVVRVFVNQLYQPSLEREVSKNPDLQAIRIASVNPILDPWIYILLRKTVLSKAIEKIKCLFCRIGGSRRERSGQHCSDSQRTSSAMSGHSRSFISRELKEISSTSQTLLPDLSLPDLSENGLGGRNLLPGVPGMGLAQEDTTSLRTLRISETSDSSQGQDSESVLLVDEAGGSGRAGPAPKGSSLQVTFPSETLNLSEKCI
# T6 sequence (P35408 whole entry): as above
# T3 sequence (P43116 whole entry): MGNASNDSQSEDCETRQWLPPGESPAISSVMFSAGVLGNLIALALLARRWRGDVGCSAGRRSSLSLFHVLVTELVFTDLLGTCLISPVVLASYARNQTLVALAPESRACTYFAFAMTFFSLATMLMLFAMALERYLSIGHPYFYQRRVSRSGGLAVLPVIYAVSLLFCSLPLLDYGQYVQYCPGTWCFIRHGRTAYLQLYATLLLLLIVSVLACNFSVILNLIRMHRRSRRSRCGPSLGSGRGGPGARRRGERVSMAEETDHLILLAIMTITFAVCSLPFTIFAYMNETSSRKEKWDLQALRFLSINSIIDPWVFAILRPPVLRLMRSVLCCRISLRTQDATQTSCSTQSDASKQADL
# T4 sequence (P43116 whole entry): as above
# T1 sequence (P43116 whole entry): as above
SMILES,pEC50 [1],pKi (EP4 receptors),EC50 (hEP2/Gqs5) [nM],pKi (human EP2 receptors),also measured
CCCC1(C(O)c2cccc([C@H]3[C@H](O)CC(=O)[C@@H]3C/C=C\CCCC(=O)OC)c2)CCC1 (stereo partly shown),,,,,pEC50 (hEP2/Gqs5): < 5.00; pEC50 (hEP3A/Gqi5; [2]): < 5.00; pEC50 (hEP4/Gqs5; [3]): < 5.00
COC(=O)CCC/C=C\C[C@@H]1[C@@H](c2ccc(C(C)(C)C)cc2)[C@H](O)C[C@H]1Cl,,,,,pEC50 (hEP2/Gqs5): < 5.00; pEC50 (hEP3A/Gqi5; [2]): < 5.00
CCCC1(C(O)c2cccc([C@H]3[C@H](O)CC(=O)[C@@H]3C/C=C\CCCC(=O)O)c2)CCC1 (stereo partly shown),,,,,pEC50 (hEP2/Gqs5): 5.28; pEC50 (hEP3A/Gqi5; [2]): 5.77
CC(C)C(O)c1ccc(N2C(=O)CC[C@@H]2COCc2ccc(C(=O)O)o2)cc1 (stereo partly shown),5.91,< 5.00,7670,< 5.00,
CCCC(O)c1ccc(N2C(=O)CC[C@@H]2COCc2ccc(C(=O)O)s2)cc1 (stereo partly shown),7.57,< 5.00,426,5.79,
O=C(O)c1ccc(COC[C@H]2CCC(=O)N2c2ccc(C(O)Cc3ccccc3)cc2)o1 (stereo partly shown),6.83,< 5.00,1230,5.64,
CCCCCC(O)c1ccc(N2C(=O)CC[C@@H]2/C=C/Cc2ccc(C(=O)O)s2)cc1 (stereo partly shown) [drawing 172],,,,,pEC50 (hEP3A/Gqi5; [5]): 5.85
CCCCCC(O)c1ccc(N2C(=O)CC[C@@H]2COCc2ccc(C(=O)O)o2)cc1 (stereo partly shown),7.59,< 5.00,388,5.69,pEC50 (hEP3A/Gqi5; [5]): 5.72
CCCC1(C(O)c2cccc([C@@H]3[C@@H](CCCCCCC(=O)O)[C@H](Cl)C[C@H]3O)c2)CCC1 (stereo partly shown),,,,,pEC50 (hEP2/Gqs5): 5.83; pEC50 (hEP3A/Gqi5; [2]): 5.51
CC(C)(C)c1ccc(N2C(=O)CC[C@@H]2COCc2cccc(C(=O)O)c2)cc1,,< 5.00,> 10000,,pEC50 (hEP4/Gqs5; [4]): < 5.00
CC(C)(C)C(O)c1ccc([C@@H]2[C@@H](CCCCCCC(=O)O)[C@H](Cl)C[C@H]2O)cc1 (stereo partly shown),,,,,pEC50 (hEP2/Gqs5): 5.90; pIC50 (human EP2 receptors; read-out: BINDING IC50 HEP2): 5.44; pEC50 (hEP4/Gqs5; [3]): < 5.00
CCCCCC(O)c1ccc(N2C(=O)CC[C@@H]2/C=C/Cc2ccc(C(=O)O)s2)cc1 (stereo partly shown) [drawing 144],7.82,< 5.00,226,5.86,
CCCCCC(=O)c1ccc(N2C(=O)CC[C@@H]2COCc2ccc(C(=O)O)s2)cc1,8.10,< 5.00,215,6.79,

# Continued, in another order:
pEC50 [1],pKi (EP4 receptors),EC50 (hEP2/Gqs5) [nM],pKi (human EP2 receptors),SMILES,also measured
8.10,< 5.00,212,6.41,CCCCC(O)c1ccc(N2C(=O)CC[C@@H]2COCc2ccc(C(=O)O)s2)cc1 (stereo partly shown),
6.29,< 5.00,> 10000,,CCCCCC(O)c1ccc(N2C(=O)CC[C@@H]2COCc2cccc(C(=O)O)c2)cc1 (stereo partly shown),
,< 5.00,> 10000,,CC(C)(C)c1ccc(N2C(=O)CC[C@@H]2COCCCCC(=O)O)cc1,pEC50 (hEP4/Gqs5; [4]): < 5.00
,< 5.00,6,,"CCCCCC(O)c1ccc(N2C(=O)CC[C@@H]2CCCc2ccc(C(=O)O)s2)cc1 (single isomer, unassigned) [drawing 150]",pEC50 (hEP3A/Gqi5; [5]): 7.92; pEC50 (hEP4/Gqs5; [4]): < 5.00
8.40,5.48,49,6.70,"CCCCCCC(O)c1ccc(N2C(=O)CC[C@@H]2COCc2ccc(C(=O)O)s2)cc1 (single isomer, unassigned) [drawing 181]",pEC50 (hEP3A/Gqi5; [5]): 6.21
,5.06,,4.64,CCCCCC(O)c1ccc(N2C(=O)CC[C@@H]2COc2ccc(C(=O)O)cc2)cc1 (stereo partly shown) [drawing 157],
8.82,5.22,,6.94,"CCCCCC(O)c1ccc(N2C(=O)CC[C@@H]2COCc2ccc(C(=O)O)s2)cc1 (single isomer, unassigned) [drawing 149]",pEC50 (hEP3A/Gqi5; [5]): 5.92; pEC50 (hEP4/Gqs5; [4]): < 5.00
8.40,5.48,,,"CCCCCCC(O)c1ccc(N2C(=O)CC[C@@H]2COCc2ccc(C(=O)O)s2)cc1 (single isomer, unassigned) [drawing 153]",pEC50 (hEP3A/Gqi5; [5]): 6.21
,5.06,7280,4.64,CCCCCC(O)c1ccc(N2C(=O)CC[C@@H]2COc2ccc(C(=O)O)cc2)cc1 (stereo partly shown) [drawing 185],
